# Assays:
# [1] = target: T1, DNMT1 (Homo sapiens, UniProt P26358); experiment: in vitro DNMT activity/inhibition assay with purified DNMT1, positive control; type: biochemical
# [2] = target: T1, DNMT1; experiment: in vitro DNMT activity/inhibition assay (colorimetric, Active Motif) with purified DNMT1; type: biochemical
# T1 sequence (P26358 whole entry): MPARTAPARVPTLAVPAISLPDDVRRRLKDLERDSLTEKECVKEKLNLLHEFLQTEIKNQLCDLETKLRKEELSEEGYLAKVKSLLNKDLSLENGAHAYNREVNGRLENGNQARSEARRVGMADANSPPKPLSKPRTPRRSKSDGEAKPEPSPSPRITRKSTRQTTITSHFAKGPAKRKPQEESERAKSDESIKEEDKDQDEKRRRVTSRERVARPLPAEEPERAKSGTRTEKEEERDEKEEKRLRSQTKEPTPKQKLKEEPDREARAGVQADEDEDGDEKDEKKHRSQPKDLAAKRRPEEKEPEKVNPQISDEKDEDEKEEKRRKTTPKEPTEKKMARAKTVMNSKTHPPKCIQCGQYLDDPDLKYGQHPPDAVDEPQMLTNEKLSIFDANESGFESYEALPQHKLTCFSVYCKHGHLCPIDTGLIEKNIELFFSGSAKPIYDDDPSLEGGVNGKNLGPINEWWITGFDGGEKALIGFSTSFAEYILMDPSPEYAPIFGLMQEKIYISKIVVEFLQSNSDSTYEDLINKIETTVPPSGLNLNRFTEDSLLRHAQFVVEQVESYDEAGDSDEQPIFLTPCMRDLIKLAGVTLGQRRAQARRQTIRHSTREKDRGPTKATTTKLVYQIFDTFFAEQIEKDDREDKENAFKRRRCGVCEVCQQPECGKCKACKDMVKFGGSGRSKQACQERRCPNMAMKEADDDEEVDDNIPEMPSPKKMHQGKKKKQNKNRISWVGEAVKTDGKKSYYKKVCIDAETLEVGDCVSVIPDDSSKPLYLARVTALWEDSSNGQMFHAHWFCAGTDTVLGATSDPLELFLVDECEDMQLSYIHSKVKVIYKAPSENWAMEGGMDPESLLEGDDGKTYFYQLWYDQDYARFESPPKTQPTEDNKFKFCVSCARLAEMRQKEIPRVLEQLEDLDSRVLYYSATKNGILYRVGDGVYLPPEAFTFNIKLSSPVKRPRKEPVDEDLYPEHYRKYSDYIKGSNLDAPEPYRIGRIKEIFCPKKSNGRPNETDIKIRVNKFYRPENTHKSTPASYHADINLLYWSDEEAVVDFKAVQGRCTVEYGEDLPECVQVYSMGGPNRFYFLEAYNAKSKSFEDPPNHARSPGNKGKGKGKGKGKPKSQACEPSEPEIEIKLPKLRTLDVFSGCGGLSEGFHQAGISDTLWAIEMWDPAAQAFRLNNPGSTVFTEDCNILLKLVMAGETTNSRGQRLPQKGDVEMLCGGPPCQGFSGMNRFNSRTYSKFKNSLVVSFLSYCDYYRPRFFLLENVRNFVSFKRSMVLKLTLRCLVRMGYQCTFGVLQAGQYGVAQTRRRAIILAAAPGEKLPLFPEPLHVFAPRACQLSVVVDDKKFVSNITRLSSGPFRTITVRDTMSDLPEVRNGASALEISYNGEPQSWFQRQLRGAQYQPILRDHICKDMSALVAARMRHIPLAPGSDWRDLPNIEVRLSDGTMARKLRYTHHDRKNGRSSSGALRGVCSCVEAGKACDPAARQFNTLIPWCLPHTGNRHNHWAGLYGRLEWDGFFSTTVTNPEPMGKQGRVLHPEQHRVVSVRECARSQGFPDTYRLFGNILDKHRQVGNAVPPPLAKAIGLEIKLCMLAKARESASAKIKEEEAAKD
IC50 [2],SMILES,"in vitro DNMT activity/inhibition assay with purified DNMT1, positive control [1]"
–,"O=C(O[C@@H]1Cc2c(O)cc(O)cc2O[C@@H]1c1cc(O)c(O)c(O)c1)c1cc(O)c(O)c(O)c1 [EGCG, Epigallocatechin gallate]",Green tea polyphenol EGCG was used as a positive control for in vitro DNMT1 inhibition.
13.5 ± 5.4 µM,"COC1=C(Br)[C@H](O)[C@@]2(C=C1Br)CC(C(=O)NCC(O)COc1c(Br)cc(C(O)CNC(=O)C3=NO[C@]4(C=C(Br)C(OC)=C(Br)[C@@H]4O)C3)cc1Br)=NO2 (some centres unmarked) [Iso-3, Isofistularin-3]",–
